Laboratory results from the supplement of paper PMC5908809.

Tests used:
[1] = system: normal NK cells expanded with K562-aAPC; assay: drug sensitivity score (DSS) (DSS units); higher = more sensitive; extreme values may be limits of the assay; settings: 72 h; IL-2 2.5 ng/mL
Experimental: (§1)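 Drug sensitivity and resistance testing on K562-aAPC-expanded normal NK cells: 5 concentrations (10-fold steps over a 10,000-fold range), 72 h at 37 °C, viability by CellTiter-Glo normalised to DMSO and benzethonium chloride controls; DSS from the fitted curve.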

[2] = system: normal NK cells expanded with K562-aAPC; assay: percent inhibition of viability; higher = more inhibition; settings: 72 h, IL-2 2.5 ng/mL
Experimental: as §1

NK-YS (IL-2 2.5 ng/mL) [3] = assay: drug sensitivity score (DSS) (DSS units); higher = more sensitive; extreme values may be limits of the assay; settings: 72 h
[4] = system: normal primary NK cells, pool 2 (3 donors) (IL-2 2.5 ng/mL); assay: as above; settings: 72 h
[5] = system: normal primary NK cells, pool 1 (3 donors) (IL-2 2.5 ng/mL); assay: as above; settings: 72 h
SNK-6 (IL-2 2.5 ng/mL) [6] = assay: as above; settings: 72 h
KHYG-1 (IL-2 2.5 ng/mL) [7] = assay: as above; settings: 72 h
DERL-7 (IL-2 2.5 ng/mL) [8] = assay: as above; settings: 72 h
[9] = system: normal primary NK cells, pool 3 (3 donors) (IL-2 2.5 ng/mL); assay: as above; settings: 72 h
NKL (IL-2 2.5 ng/mL) [10] = assay: as above; settings: 72 h
[11] = system: normal primary NK cells, pool 1 (3 donors), resting (IL-2 0 ng/mL); assay: as above; settings: 72 h
KAI3 (IL-2 2.5 ng/mL) [12] = assay: as above; settings: 72 h
YT (IL-2 2.5 ng/mL) [13] = assay: as above; settings: 72 h
NK-92 (IL-2 2.5 ng/mL) [14] = assay: as above; settings: 72 h
IMC-1 (IL-2 20 ng/mL) [15] = assay: as above; settings: 72 h
NK-YS (IL-2 2.5 ng/mL) [16] = assay: percent inhibition of viability; higher = more inhibition; settings: 72 h
[17] = system: normal primary NK cells, pool 2 (3 donors) (IL-2 2.5 ng/mL); assay: as above; settings: 72 h
[18] = system: normal primary NK cells, pool 1 (3 donors) (IL-2 2.5 ng/mL); assay: as above; settings: 72 h
SNK-6 (IL-2 2.5 ng/mL) [19] = assay: as above; settings: 72 h
KHYG-1 (IL-2 2.5 ng/mL) [20] = assay: as above; settings: 72 h
DERL-7 (IL-2 2.5 ng/mL) [21] = assay: as above; settings: 72 h
[22] = system: normal primary NK cells, pool 3 (3 donors) (IL-2 2.5 ng/mL); assay: as above; settings: 72 h
NKL (IL-2 2.5 ng/mL) [23] = assay: as above; settings: 72 h
[24] = system: normal primary NK cells, pool 1 (3 donors), resting (IL-2 0 ng/mL); assay: as above; settings: 72 h
KAI3 (IL-2 2.5 ng/mL) [25] = assay: as above; settings: 72 h
YT (IL-2 2.5 ng/mL) [26] = assay: as above; settings: 72 h
NK-92 (IL-2 2.5 ng/mL) [27] = assay: as above; settings: 72 h
IMC-1 (IL-2 20 ng/mL) [28] = assay: as above; settings: 72 h

COc1cccc2c1C(=O)c1c(O)c3c(c(O)c1C2=O)C[C@@](O)(C(=O)CO)C[C@@H]3O[C@H]1C[C@H](N)[C@H](O)[C@H](C)O1 [Doxorubicin] (max concentration tested 1000 nM)
Settings	drug sensitivity score
DERL-7 (IL-2 2.5 ng/mL) [8]	17.4
IMC-1 (IL-2 20 ng/mL) [15]	16
KAI3 (IL-2 2.5 ng/mL) [12]	16.2
KHYG-1 (IL-2 2.5 ng/mL) [7]	14.6
NK-92 (IL-2 2.5 ng/mL) [14]	12.8
NK-YS (IL-2 2.5 ng/mL) [3]	17.1
NKL (IL-2 2.5 ng/mL) [10]	28.7
SNK-6 (IL-2 2.5 ng/mL) [6]	15.5
YT (IL-2 2.5 ng/mL) [13]	13.3
[1]	10.8
[4]	10.2
[5]	10.3
[9]	8.97
[11]	13.3

percent inhibition of viability [%]
Settings	0.1 nM	1 nM	10 nM	100 nM	1000 nM
DERL-7 (IL-2 2.5 ng/mL) [21]	-0.26	-4.85	13.4	85.9	100
IMC-1 (IL-2 20 ng/mL) [28]	-7.6	-2.62	-0.06	88.2	99.8
KAI3 (IL-2 2.5 ng/mL) [25]	-17.1	-0.05	19.4	74.9	89.1
KHYG-1 (IL-2 2.5 ng/mL) [20]	-8.45	-6.72	-0.27	79.3	98.3
NK-92 (IL-2 2.5 ng/mL) [27]	-8.55	11.3	-2.45	64.2	96.6
NK-YS (IL-2 2.5 ng/mL) [16]	-8.43	-6.33	14.6	83.5	95.3
NKL (IL-2 2.5 ng/mL) [23]	-17.6	-0.29	89.2	102	97.3
SNK-6 (IL-2 2.5 ng/mL) [19]	20	14.8	5.01	80.6	94.3
YT (IL-2 2.5 ng/mL) [26]	-4.73	-5.55	-0.81	69.3	97.2
[2]	-3.12	-5.25	-1.72	39.8	99.8
[17]	-14	-6.82	-8.6	37.2	94.4
[18]	-9.2	-4.36	4.47	40.8	96.5
[22]	-4.57	-14.4	-9.04	23.1	97.2
[24]	-18	-16.6	1.78	70.1	92.1

O=C(c1ccc(C(=O)N2CCC(N3CCCC3)CC2)c(Nc2ccccc2)c1)N1CCC(N2CCCC2)CC1 [UNC1215] (max concentration tested 30000 nM)
Settings	drug sensitivity score
DERL-7 (IL-2 2.5 ng/mL) [8]	0
IMC-1 (IL-2 20 ng/mL) [15]	0.31
KAI3 (IL-2 2.5 ng/mL) [12]	0.59
KHYG-1 (IL-2 2.5 ng/mL) [7]	0.12
NK-92 (IL-2 2.5 ng/mL) [14]	0.29
NK-YS (IL-2 2.5 ng/mL) [3]	0.25
NKL (IL-2 2.5 ng/mL) [10]	0
SNK-6 (IL-2 2.5 ng/mL) [6]	0
YT (IL-2 2.5 ng/mL) [13]	0
[1]	0
[4]	0.28
[5]	0
[9]	0.52
[11]	0

percent inhibition of viability [%]
Settings	3 nM	30 nM	300 nM	3000 nM	30000 nM
DERL-7 (IL-2 2.5 ng/mL) [21]	-1.53	0.01	3.61	7.89	3.14
IMC-1 (IL-2 20 ng/mL) [28]	-3.72	-5.44	3.3	4.34	14.3
KAI3 (IL-2 2.5 ng/mL) [25]	1.7	4.58	5.63	3.2	16.4
KHYG-1 (IL-2 2.5 ng/mL) [20]	-1.52	-1.25	-0.64	3.44	11.4
NK-92 (IL-2 2.5 ng/mL) [27]	-15.1	-6.53	5.43	7.05	13.6
NK-YS (IL-2 2.5 ng/mL) [16]	-2.93	-6.82	1.29	4.26	12.9
NKL (IL-2 2.5 ng/mL) [23]	-7.8	-11.1	-0.61	-5.87	10.9
SNK-6 (IL-2 2.5 ng/mL) [19]	-4.87	-19.4	0.88	-4.07	-10.5
YT (IL-2 2.5 ng/mL) [26]	-2.24	-2.54	-0.78	1.55	4.57
[2]	3.82	0.21	4.98	5.27	6.03
[17]	-8.79	-4.27	-3.06	7.44	11.8
[18]	-4.87	7.23	-8	1.14	-2.52
[22]	-6.54	-6.05	-0.93	8.8	12.9
[24]	-4.97	4.4	-12.3	-0.15	-14.2

C[C@@H](Nc1cc(F)cc(F)c1)c1cc(C(=O)N(C)C)cc2c(=O)cc(N3CCOCC3)oc12 [AZD-8186] (max concentration tested 1000 nM)
Settings	drug sensitivity score
DERL-7 (IL-2 2.5 ng/mL) [8]	1.36
IMC-1 (IL-2 20 ng/mL) [15]	0
KAI3 (IL-2 2.5 ng/mL) [12]	0
KHYG-1 (IL-2 2.5 ng/mL) [7]	0
NK-92 (IL-2 2.5 ng/mL) [14]	2.45
NK-YS (IL-2 2.5 ng/mL) [3]	0
NKL (IL-2 2.5 ng/mL) [10]	0
SNK-6 (IL-2 2.5 ng/mL) [6]	0
YT (IL-2 2.5 ng/mL) [13]	0
[1]	0
[4]	0
[5]	0.51
[9]	0
[11]	2.41

percent inhibition of viability [%]
Settings	0.1 nM	1 nM	10 nM	100 nM	1000 nM
DERL-7 (IL-2 2.5 ng/mL) [21]	-0.61	-0.52	0.73	12.4	17.2
IMC-1 (IL-2 20 ng/mL) [28]	-4.26	-2.05	-9.6	-12.9	-13.3
KAI3 (IL-2 2.5 ng/mL) [25]	-2.99	1.77	1.66	8.81	5.34
KHYG-1 (IL-2 2.5 ng/mL) [20]	-0.98	-2.42	-2.86	0.88	-3.51
NK-92 (IL-2 2.5 ng/mL) [27]	-5.14	-3.4	-6.34	7.87	29.8
NK-YS (IL-2 2.5 ng/mL) [16]	-5.07	-6.92	-2.82	-2.72	4.56
NKL (IL-2 2.5 ng/mL) [23]	-15.3	-13.8	-5.07	-8.33	-6.27
SNK-6 (IL-2 2.5 ng/mL) [19]	10	11.1	-10.9	-9.3	-17.3
YT (IL-2 2.5 ng/mL) [26]	-0.09	-4.44	-2.79	1.47	3.03
[2]	-7	-2.1	-0.27	1.82	6.33
[17]	-10.7	-2.64	-11.3	-1.73	4.08
[18]	-5.02	-7	5.11	5.09	16.9
[22]	-6.84	-3.88	-7.48	-5.25	-2.65
[24]	3.9	-3.52	11.1	13.5	24.3
